Laboratory results published in US9102678B2, “Compounds and methods for inhibiting mitotic progression” (Millennium Pharmaceuticals, Inc., priority 2004, dated 2015).

Target: T1, recombinant murine Aurora A enzyme (Mus musculus, UniProt P97477)
T1 construct: hexahistidine (His6) (N); made in house; host or cells: insect cells, baculovirus (Bac-to-Bac, Invitrogen)
Test: Aurora A DELFIA Kinase Assay
Format: biochemical
Details: mouse Aurora A, 250 μM ATP; threshold less than or equal to 100 nM; read-out: IC50

T1 sequence (P97477 whole entry): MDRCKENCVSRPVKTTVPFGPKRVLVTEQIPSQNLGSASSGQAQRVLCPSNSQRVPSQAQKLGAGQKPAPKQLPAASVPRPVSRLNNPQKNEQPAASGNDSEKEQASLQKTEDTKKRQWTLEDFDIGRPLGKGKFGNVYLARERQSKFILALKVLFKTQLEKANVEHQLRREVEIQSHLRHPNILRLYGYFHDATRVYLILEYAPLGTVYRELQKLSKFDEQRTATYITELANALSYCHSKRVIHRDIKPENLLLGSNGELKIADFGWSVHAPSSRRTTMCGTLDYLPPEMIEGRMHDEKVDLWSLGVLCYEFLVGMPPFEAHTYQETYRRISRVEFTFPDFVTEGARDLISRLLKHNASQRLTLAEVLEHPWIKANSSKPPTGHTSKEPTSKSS

SMILES	IC50 [nM]
CN(C)C1CN(C(=N)NC(=O)c2ccc(Nc3ncc4c(n3)-c3ccc(Cl)cc3C(c3c(F)cccc3F)=NC4)cc2)C1 [Compound I-259, 4-{[9-chloro-7-(2,6-difluorophenyl)-5H-pyrimido[5,4-d][2]benzazepin-2-yl]amino}-N-[[3-(dimethylamino)azetidin-1-yl](imino)methyl]benzamide]	≤ 100
CNCCCN(C)C(=O)c1ccc(Nc2ncc3c(n2)-c2ccc(Cl)cc2C(c2c(F)cccc2OC)=NC3)cc1 [Compound I-261, 4-{[9-chloro-7-(2-fluoro-6-methoxyphenyl)-5H-pyrimido[5,4-d][2]benzazepin-2-yl]amino}-N-methyl-N-[3-(methylamino)propyl]benzamide]	≤ 100
CNC1CCCN(C(=O)c2ccc(Nc3ncc4c(n3)-c3ccc(Cl)cc3C(c3c(F)cccc3OC)=NC4)cc2)C1 (centres unmarked) [Compound I-263, 9-chloro-7-(2-fluoro-6-methoxyphenyl)-N-(4-{[3-(methylamino)piperidin-1-yl]carbonyl}phenyl)-5H-pyrimido[5,4-d][2]benzazepin-2-amine]	≤ 100
COc1cccc(F)c1C1=NCc2cnc(Nc3ccc(C(=O)N(C)CCCN)cc3)nc2-c2ccc(Cl)cc21 [Compound I-264, N-(3-aminopropyl)-4-{[9-chloro-7-(2-fluoro-6-methoxyphenyl)-5H-pyrimido[5,4-d][2]benzazepin-2-yl]amino}-N-methylbenzamide]	≤ 100
COc1cccc(F)c1C1=NCc2cnc(Nc3ccc(C(=O)N(C)CCN)cc3)nc2-c2ccc(Cl)cc21 [Compound I-265, N-(2-aminoethyl)-4-{[9-chloro-7-(2-fluoro-6-methoxyphenyl)-5H-pyrimido[5,4-d][2]benzazepin-2-yl]amino}-N-methylbenzamide]	≤ 100
O=C(O)C1CN(C(=O)c2ccc(Nc3ncc4c(n3)-c3ccc(Cl)cc3C(c3c(F)cccc3F)=NC4)cc2)CCN1 (centres unmarked) [Compound I-266, 4-(4-{[9-chloro-7-(2,6-difluorophenyl)-5H-pyrimido[5,4-d][2]benzazepin-2-yl]amino}benzoyl)piperazine-2-carboxylic acid]	≤ 100
CN(C)C1CN(C(=N)c2ccc(Nc3ncc4c(n3)-c3ccc(Cl)cc3C(c3c(F)cccc3F)=NC4)cc2)C1 [Compound I-267, 9-chloro-7-(2,6-difluorophenyl)-N-{4-[[3-(dimethylamino)azetidin-1-yl](imino)methyl]phenyl}-5H-pyrimido[5,4-d][2]benzazepin-2-amine]	≤ 100
CC1(C)CN=C(c2ccc(Nc3ncc4c(n3)-c3ccc(Cl)cc3C(c3c(F)cccc3F)=NC4)cc2)N1 [Compound I-270, 9-chloro-7-(2,6-difluorophenyl)-N-[4-(5,5-dimethyl-4,5-dihydro-1H-imidazol-2-yl)phenyl]-5H-pyrimido[5,4-d][2]benzazepin-2-amine]	≤ 100
O=C(O)c1ccc(Nc2ncc3c(n2)-c2ccc(Cl)cc2C(c2ccccc2C(F)(F)F)=NC3)cc1 [Compound I-277, 4-({9-chloro-7-[2-(trifluoromethyl)phenyl]-5H-pyrimido[5,4-d][2]benzazepin-2-yl}amino)benzoic acid]	≤ 100
CNC1CCN(C(=O)c2cc(Nc3ncc4c(n3)-c3ccc(Cl)cc3C(c3c(F)cccc3F)=NC4)ccc2Cl)C1 (centres unmarked) [Compound I-281, 9-chloro-N-(4-chloro-3-{[3-(methylamino)pyrrolidin-1-yl]carbonyl}phenyl)-7-(2,6-difluorophenyl)-5H-pyrimido[5,4-d][2]benzazepin-2-amine]	≤ 100
CNC1CCN(C(=O)c2cc(Nc3ncc4c(n3)-c3ccc(Cl)cc3C(c3c(F)cccc3F)=NC4)ccc2Cl)CC1 [Compound I-282, 9-chloro-N-(4-chloro-3-{[4-(methylamino)piperidin-1-yl]carbonyl}phenyl)-7-(2,6-difluorophenyl)-5H-pyrimido[5,4-d][2]benzazepin-2-amine]	≤ 100
CNCCN(C)C(=O)c1cc(Nc2ncc3c(n2)-c2ccc(Cl)cc2C(c2c(F)cccc2F)=NC3)ccc1Cl [Compound I-283, 2-chloro-5-{[9-chloro-7-(2,6-difluorophenyl)-5H-pyrimido[5,4-d][2]benzazepin-2-yl]amino}-N-methyl-N-[2-(methylamino)ethyl]benzamide]	≤ 100
N=C(c1ccc(Nc2ncc3c(n2)-c2ccc(Cl)cc2C(c2c(F)cccc2F)=NC3)cc1)N1CCC(N)C1 (centres unmarked) [Compound I-284]	≤ 100
OC1CN=C(c2ccc(Nc3ncc4c(n3)-c3ccc(Cl)cc3C(c3c(F)cccc3F)=NC4)cc2)NC1 (centres unmarked) [Compound I-285, 2-(4-{[9-chloro-7-(2,6-difluorophenyl)-5H-pyrimido[5,4-d][2]benzazepin-2-yl]amino}phenyl)-1,4,5,6-tetrahydropyrimidin-5-ol]	≤ 100
COc1cccc(F)c1C1=NCc2cnc(Nc3ccc(C(=O)N4CC(N)C4)cc3)nc2-c2ccc(Cl)cc21 [Compound I-286]	≤ 100

Second part, the compound after the results:

IC50 [nM]	SMILES
≤ 100	CC(C)(N)CNC(=O)c1ccc(Nc2ncc3c(n2)-c2ccc(Cl)cc2C(c2c(F)cccc2F)=NC3)cc1 [Compound I-260, N-(2-amino-2-methylpropyl)-4-{[9-chloro-7-(2,6-difluorophenyl)-5H-pyrimido[5,4-d][2]benzazepin-2-yl]amino}benzamide]
≤ 100	COc1cccc(F)c1C1=NCc2cnc(Nc3ccc(C(=O)N4CCCC(N)C4)cc3)nc2-c2ccc(Cl)cc21 (centres unmarked) [Compound I-262]
≤ 100	CNC1CCN(C(=N)c2ccc(Nc3ncc4c(n3)-c3ccc(Cl)cc3C(c3c(F)cccc3F)=NC4)cc2)C1 (centres unmarked) [Compound I-268, 9-chloro-7-(2,6-difluorophenyl)-N-(4-{imino[3-(methylamino)pyrrolidin-1-yl]methyl}phenyl)-5H-pyrimido[5,4-d][2]benzazepin-2-amine]
≤ 100	CN(C)C1CCN(C(=O)c2cc(Nc3ncc4c(n3)-c3ccc(Cl)cc3C(c3c(F)cccc3F)=NC4)ccc2Cl)CC1 [Compound I-269, 9-chloro-N-(4-chloro-3-{[4-(dimethylamino)piperidin-1-yl]carbonyl}phenyl)-7-(2,6-difluorophenyl)-5H-pyrimido[5,4-d][2]benzazepin-2-amine]
≤ 100	NCC#Cc1ccc2c(c1)C(c1c(F)cccc1F)=NCc1cnc(Nc3ccc(C(=O)O)cc3)nc1-2 [Compound I-272, 4-{[9-(3-aminoprop-1-yn-1-yl)-7-(2,6-difluorophenyl)-5H-pyrimido[5,4-d][2]benzazepin-2-yl]amino}benzoic acid]
≤ 100	O=C(O)c1ccc(Nc2ncc3c(n2)-c2ccc(Br)cc2C(c2c(F)cccc2F)=NC3)cc1 [Compound I-274, 4-{[9-bromo-7-(2,6-difluorophenyl)-5H-pyrimido[5,4-d][2]benzazepin-2-yl]amino}benzoic acid]
≤ 100	NC1CN(C(=O)c2ccc(Nc3ncc4c(n3)-c3ccc(Cl)cc3C(c3c(F)cccc3F)=NC4)cc2)C1 [Compound I-278, N-{4-[(3-aminoazetidin-1-yl)carbonyl]phenyl}-9-chloro-7-(2,6-difluorophenyl)-5H-pyrimido[5,4-d][2]benzazepin-2-amine]
≤ 100	CN1CCN(C(=O)Nc2ccc(Nc3ncc4c(n3)-c3ccc(Cl)cc3C(c3c(F)cccc3F)=NC4)cc2)CC1 [Compound I-280, 4-Methyl-piperazine-1-carboxylic acid {4-[9-chloro-7-(2,6-difluoro-phenyl)-5H-benzo[c]pyrimido[4,5-e]azepin-2-ylamino]-phenyl}-amide]
